This assay has as its system Mycobacterium tuberculosis variant bovis. The assay is described as follows: Antitubercular activity against Mycobacterium bovis. It counts as functional.

Here are results for one compound from ChEMBL document CHEMBL4406816, “Role of sulphur-heterocycles in medicinal chemistry: An update” (Eur J Med Chem, 2019).

In general, MIC refers to the lowest concentration that inhibits growth of the organism.

SMILES strings stand for the structures. Converted amounts (≈) assume the structure as drawn.

For the compound `Fc1ccc(-c2cn(Cc3csc(-c4ccccc4)n3)nn2)cc1`, the MIC turned out to be 1.69 µg/mL (≈ 5.02 µM).
